{
  "source": "the supplement of paper PMC10307832",
  "assay_in_all_cases": "relative viability (nuclei count vs DMSO), 5 days (fraction); higher = more cells survive",
  "key": {"[1]": {"compound": "CN1C=C(C2=CC=CC=C21)/C=C\\3/C4=C(C=CC=N4)NC3=O + CC1(C)CCC(c2ccc(Cl)cc2)=C(CN2CCN(c3ccc(C(=O)NS(=O)(=O)c4ccc(N[C@H](CCN5CCOCC5)CSc5ccccc5)c(S(=O)(=O)C(F)(F)F)c4)cc3)CC2)C1 [Navitoclax] (partner 0.5 µM)", "in_short": "(§1)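 Values are medians from duplicate plates. Each reflects relative viability, defined as the nuclei count of treated wells over that of vehicle wells. Lung cancer cell lines in 1536-well plates were pin-tool dosed one day after seeding with one drug alone or with a fixed anchor-drug dose plus five library-drug doses (not always all listed) in √10 steps, then fixed, stained and imaged at 4× after 5 days.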"}, "[2]": {"compound": "CC(=O)Nc1cccc(-n2c(=O)n(C3CC3)c(=O)c3c(Nc4ccc(I)cc4F)n(C)c(=O)c(C)c32)c1 [Trametinib] + Cc1cc(Nc2cc(N3CCN(C)CC3)nc(Sc3ccc(NC(=O)C4CC4)cc3)n2)n[nH]1 [Tozasertib] (partner 0.1 µM)", "in_short": "as §1"}, "[3]": {"compound": "CN1C=C(C2=CC=CC=C21)/C=C\\3/C4=C(C=CC=N4)NC3=O + C[C@]1(O)C[C@@H](c2nc(-c3ccc4ccc(-c5ccccc5)nc4c3)c3c(N)nccn32)C1 [Linsitinib] (partner 1 µM)", "in_short": "as §1"}, "[4]": {"compound": "CC(=O)Nc1cccc(-n2c(=O)n(C3CC3)c(=O)c3c(Nc4ccc(I)cc4F)n(C)c(=O)c(C)c32)c1 [Trametinib] + CC(C)C[C@H](NC(=O)[C@H](Cc1ccccc1)NC(=O)c1cnccn1)B(O)O [Bortezomib] (partner 0.002 µM)", "in_short": "as §1"}},
  "data": [
    {"cell line": "UMC-11", "values": [
      {"measurement": "relative viability", "setting": "[1]; first compound 0.02 µM", "result": 0.24},
      {"measurement": "relative viability", "setting": "[1]; first compound 0.06325 µM", "result": 0.318},
      {"measurement": "relative viability", "setting": "[1]; first compound 0.2 µM", "result": 0.288},
      {"measurement": "relative viability", "setting": "[1]; first compound 0.6325 µM", "result": 0.362},
      {"measurement": "relative viability", "setting": "[1]; first compound 2 µM", "result": 0.391},
      {"measurement": "relative viability", "setting": "[2]; first compound 0.0025 µM", "result": 0.199},
      {"measurement": "relative viability", "setting": "[2]; first compound 0.007906 µM", "result": 0.195},
      {"measurement": "relative viability", "setting": "[2]; first compound 0.07906 µM", "result": 0.19},
      {"measurement": "relative viability", "setting": "[2]; first compound 0.25 µM", "result": 0.211},
      {"measurement": "relative viability", "setting": "[3]; first compound 0.02 µM", "result": 0.68},
      {"measurement": "relative viability", "setting": "[3]; first compound 0.06325 µM", "result": 1},
      {"measurement": "relative viability", "setting": "[3]; first compound 0.2 µM", "result": 1.07},
      {"measurement": "relative viability", "setting": "[3]; first compound 0.6325 µM", "result": 1.1},
      {"measurement": "relative viability", "setting": "[3]; first compound 2 µM", "result": 1.18},
      {"measurement": "relative viability", "setting": "[4]; first compound 0.0025 µM", "result": 0.777},
      {"measurement": "relative viability", "setting": "[4]; first compound 0.007906 µM", "result": 0.836},
      {"measurement": "relative viability", "setting": "[4]; first compound 0.025 µM", "result": 0.254},
      {"measurement": "relative viability", "setting": "[4]; first compound 0.07906 µM", "result": 0.837},
      {"measurement": "relative viability", "setting": "[4]; first compound 0.25 µM", "result": 0.663}
    ]}
  ]
}
